Experimental findings from patent US20260200921A1, “SUBSTITUTED AMINOPYRIDINE COMPOUNDS AS AKT INHIBITORS” (Atavistik Bio, Inc., priority 2023, published 2026) are described below.

By IC50 is commonly meant the concentration that inhibits the measured activity by half.

The target of one test is T1, AKT1 E17K (Homo sapiens, UniProt P31749, E17K).
T1 construct: Purified human recombinant kinase full-length AKT1 E17K was expressed in insect cells; made in house; host or cells: insect cells
Nature of the test: AKT1 E17K kinase assay (TR-FRET, Lance). The format is biochemical. The following applies: full-length human recombinant AKT1 E17K activated by PDPK1; Ulight-CREBtide substrate; either 50 μM ATP or 2 mM ATP. The procedure: AKT1 E17K kinase assay: Inhibitory effects of compounds on AKT1 E17K were undertaken in a 10-pt dose response kinase activity assay measuring phospho-peptide product formation based on TR-FRET signal as described in the following paragraph.
(§1) Purified human recombinant kinase full-length AKT1 E17K was expressed in insect cells and activated in vitro by PDPK1. Ulight™-CREBtide (PerkinElmer, catalog number TRF0107) was used as the peptide substrate. The reaction buffer consisted of 50 mM HEPES pH 7.5, 10 mM MgCl2, 0.01% Triton X-100, 0.01% BSA, 2 mM DTT, 0.6 nM AKT1 E17K, 50 nM Ulight™-CREBtide and either 50 μM ATP or 2 mM ATP. The compound solution was prepared as 10 mM DMSO stock. For the assay, a 1:3 serial dilution 10-pt dose response of test compounds, in duplicate, for each concentration were dispensed into a 384-well plate (Corning, catalog number 4513). Final DMSO concentration in the assay was 1%. The enzyme mixture (5 μL, 1.2 nM) were added and the mixture was incubated for 15 min at RT prior to the start of the kinase reaction by the addition of 5 μL substrate mixture (100 nM Ulight™-CREBtide). The reaction was stopped after 60 min of incubation at RT by the addition of 10 μL of Detection Mix (PerkinElmer, #CR97-100) consisting of Europium-anti-phospho-CREB (Ser133) (Perkin Elmer, catalog numberTRF0200). Incubation with the detection mix for a further 60 min allowed binding of antibody to the phospho-Ulight™ CREBtide. The fluorescence emissions at 620 nm and 665 nm after excitation at 350 nm was measured using Envision reader. The ratio of the emissions at 665 nm and at 620 nm provided the measure for the amount of phosphorylated CREBtide product of AKT1 E17K kinase activity. To determine the IC50 values, the data was normalized (enzyme reaction without inhibitor=0% inhibition, all other assay components but no enzyme=100% inhibition) and IC50 values were calculated by a 4-parameter fit using an in-house developed protocol.
For orientation: Time-resolved FRET reads energy transfer from a long-lived donor to a nearby acceptor.

The next test deals with T2, wildtype AKT1 (Homo sapiens, UniProt P31749).
T2 construct: Purified human recombinant kinase full-length wildtype AKT1 was expressed in insect cells; made in house; host or cells: insect cells
T2 sequence (P31749 whole entry): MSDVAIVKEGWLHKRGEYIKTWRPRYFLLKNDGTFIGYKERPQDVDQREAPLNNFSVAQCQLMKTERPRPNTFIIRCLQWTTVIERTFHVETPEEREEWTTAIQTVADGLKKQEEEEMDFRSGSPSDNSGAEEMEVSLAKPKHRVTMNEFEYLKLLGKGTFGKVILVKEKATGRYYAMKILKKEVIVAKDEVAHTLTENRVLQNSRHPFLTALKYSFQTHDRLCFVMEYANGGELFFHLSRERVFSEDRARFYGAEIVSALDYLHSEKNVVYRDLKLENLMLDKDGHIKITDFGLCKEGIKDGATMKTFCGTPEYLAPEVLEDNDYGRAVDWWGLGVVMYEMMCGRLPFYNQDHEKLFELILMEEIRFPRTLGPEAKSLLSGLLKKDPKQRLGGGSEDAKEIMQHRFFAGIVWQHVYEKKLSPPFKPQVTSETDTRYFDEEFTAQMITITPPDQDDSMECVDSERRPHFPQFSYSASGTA
In words: AKT1 kinase assay, wildtype (TR-FRET, Lance). The settings on record: full-length human recombinant wildtype AKT1 activated by PDPK1; Ulight-CREBtide substrate; either 50 μM ATP or 2 mM ATP. Type of test: biochemical. The method, then: AKT1 kinase assay: Inhibitory effects of compounds on wildtype AKT1 were undertaken in a 10-pt dose response kinase activity assay measuring phospho-peptide product formation based on TR-FRET signal as described in the following paragraph.
as §1, with “full-length wildtype” for “full-length”, “AKT1” for “AKT1 E17K”, “nM AKT1,” for “nM AKT1 E17K,”, “Mix (PerkinElmer.” for “Mix (PerkinElmer,”

T1 sequence (P31749 whole entry E17K): as the sequence (P31749 whole entry) above, with E17K counted along it

`Cc1cc(O)n(-c2ccc(C(=O)NCc3ccc(-n4c(-c5cccnc5N)nc5ccc(-c6ccccc6)nc54)cc3)cn2)n1` [Compound I-18, N-(4-(2-(2-aminopyridin-3-yl)-5-phenyl-3H-imidazo[4,5-b]pyridin-3-yl)benzyl)-6-(5-hydroxy-3-methyl-1H-pyrazol-1-yl)nicotinamide]: the values for the IC50 at AKT1 E17K and at wildtype AKT1 were less than 0.05 µM and less than 0.5 µM, respectively.
Taken in the same sequence, the figures for `Cc1cc(O)n(-c2ccc(C(=O)NCc3ccc(-n4c(-c5cccnc5N)nc5ccc(-c6ccccc6)nc54)cc3)nc2)n1` [Compound I-19, N-(4-(2-(2-aminopyridin-3-yl)-5-phenyl-3H-imidazo[4,5-b]pyridin-3-yl)benzyl)-5-(5-hydroxy-3-methyl-1H-pyrazol-1-yl)picolinamide] were 0.2 to 0.5 µM and less than 0.5 µM.
Taken in the same sequence, the figures for `Nc1ncccc1-c1nc2ccc(-c3ccccc3)nc2n1-c1ccc(CNC(=O)c2ccc(-c3nn[nH]n3)cc2)cc1` [Compound I-20, N-(4-(2-(2-aminopyridin-3-yl)-5-phenyl-3H-imidazo[4,5-b]pyridin-3-yl)benzyl)-4-(2H-tetrazol-5-yl)benzamide] were less than 0.05 µM and less than 0.5 µM.
As for `Nc1ncccc1-c1nc2ccc(-c3ccccc3)nc2n1-c1ccc(CNC(=O)c2cccc(-c3nn[nH]n3)c2)cc1` [Compound I-21, N-(4-(2-(2-aminopyridin-3-yl)-5-phenyl-3H-imidazo[4,5-b]pyridin-3-yl)benzyl)-3-(2H-tetrazol-5-yl)benzamide], the IC50 on AKT1 E17K was 0.05 to 0.2 µM; at wildtype AKT1 it was less than 0.5 µM.
Consider `Cc1cc(O)n(-c2ccc(C(=O)NCc3ccc(-n4c(-c5cccnc5N)nc5ccc(-c6ccccc6)nc54)nc3)cc2)n1` [Compound I-22, N-[[6-[2-(2-amino-3-pyridyl)-5-phenyl-imidazo[4,5-b]pyridin-3-yl]-3-pyridyl]methyl]-4-(5-hydroxy-3-methyl-pyrazol-1-yl)benzamide], for which the IC50 at AKT1 E17K is no less than 0.5 µM; at wildtype AKT1, greater than 0.5 µM.
Taken in the same sequence, the figures for `Cc1cc(O)n(-c2ccc(C(=O)NCc3ccc(-n4c(-c5cccnc5N)nc5cc(-c6ccccc6)cnc54)cc3)cc2)n1` [Compound I-23, N-(4-(2-(2-aminopyridin-3-yl)-6-phenyl-3H-imidazo[4,5-b]pyridin-3-yl)benzyl)-4-(5-hydroxy-3-methyl-1H-pyrazol-1-yl)benzamide] were no less than 0.5 µM and greater than 0.5 µM.
For `Cc1cc(O)n(-c2ccc(C(=O)NCc3ccc(-n4c(-c5cccnc5N)nc5cc(-c6cccnc6)cnc54)cc3)cc2)n1` [Compound I-24, N-[[4-[2-(2-amino-3-pyridyl)-6-(3-pyridyl)imidazo[4,5-b]pyridin-3-yl]phenyl]methyl]-4-(5-hydroxy-3-methyl-pyrazol-1-yl)benzamide], the IC50 at AKT1 E17K was no less than 0.5 µM; on wildtype AKT1 it was less than 0.5 µM.
Taken in the same sequence, the figures for `Cc1cc(O)n(-c2ccc(C(=O)N3CC(c4ccc(-n5c(-c6cccnc6N)nc6ccc(-c7ccccc7)nc65)cc4)C3)cc2)n1` [Compound I-25, (3-(4-(2-(2-aminopyridin-3-yl)-5-phenyl-3H-imidazo[4,5-b]pyridin-3-yl)phenyl)azetidin-1-yl)(4-(5-hydroxy-3-methyl-1H-pyrazol-1-yl)phenyl) methanone] were less than 0.05 µM and less than 0.5 µM.
Taken in the same sequence, the figures for `Nc1ncccc1-c1nc2ccc(-c3ccccc3)nc2n1-c1ccc(C2CN(C(=O)c3ccc(-c4nn[nH]n4)cc3)C2)cc1` [Compound I-26, (4-(2H-tetrazol-5-yl)phenyl)(3-(4-(2-(2-aminopyridin-3-yl)-5-phenyl-3H-imidazo[4,5-b]pyridin-3-yl)phenyl)azetidin-1-yl)methanone] were less than 0.05 µM and less than 0.5 µM.
Taken in the same sequence, the figures for `Nc1ncccc1-c1nc2ccc(-c3ccccc3)nc2n1-c1ccc(C2CN(C(=O)c3cccc(-c4nn[nH]n4)c3)C2)cc1` [Compound I-27, (3-(2H-tetrazol-5-yl)phenyl)(3-(4-(2-(2-aminopyridin-3-yl)-5-phenyl-3H-imidazo[4,5-b]pyridin-3-yl)phenyl)azetidin-1-yl)methanone] were 0.05 to 0.2 µM and less than 0.5 µM.
As for `Cc1cc(O)n(-c2ccc(C(=O)NCc3ccc(-n4c(-c5cccnc5N)nc5ccc(-c6ccccc6)cc54)cc3)cc2)n1` [Compound I-28, N-[[4-[2-(2-amino-3-pyridyl)-6-phenyl-benzimidazol-1-yl]phenyl]methyl]-4-(5-hydroxy-3-methyl-pyrazol-1-yl)benzamide], the IC50 at AKT1 E17K was no less than 0.5 µM; at wildtype AKT1, greater than 0.5 µM.
For the molecule `Cn1ncc(-c2ccc(C(=O)NCc3ccc(-n4c(-c5cccnc5N)nc5ccc(-c6ccccc6)nc54)cc3)cc2)c1O` [Compound I-29, N-[[4-[2-(2-amino-3-pyridyl)-5-phenyl-imidazo[4,5-b]pyridin-3-yl]phenyl]methyl]-4-(5-hydroxy-1-methyl-pyrazol-4-yl)benzamide], the IC50 was no less than 0.5 µM on AKT1 E17K and less than 0.5 µM at wildtype AKT1.
Taken in the same sequence, the figures for `Cc1nc(NC(=O)[C@H]2CC[C@H](c3nsc(=O)[nH]3)CC2)ccc1-n1c(-c2cccnc2N)nc2ccc(-c3ccccc3)nc21` [Compound I-38, (1r,4r)-N-(5-(2-(2-aminopyridin-3-yl)-5-phenyl-3H-imidazo[4,5-b]pyridin-3-yl)-6-methylpyridin-2-yl)-4-(5-oxo-4,5-dihydro-1,2,4-thiadiazol-3-yl)cyclohexane-1-carboxamide] were no less than 0.5 µM and less than 0.5 µM.
Taken in the same sequence, the figures for `Cc1nc(NC(=O)[C@H]2CC[C@H](c3nn[nH]n3)CC2)ccc1-n1c(-c2cccnc2N)nc2ccc(-c3ccccc3)nc21` [Compound I-39, (1r,4r)-N-(5-(2-(2-aminopyridin-3-yl)-5-phenyl-3H-imidazo[4,5-b]pyridin-3-yl)-6-methylpyridin-2-yl)-4-(2H-tetrazol-5-yl)cyclohexane-1-carboxamide] were 0.2 to 0.5 µM and less than 0.5 µM.
Taken in the same sequence, the figures for `Cc1nc(NC(=O)c2cccc(-c3nsc(=O)[nH]3)c2)ccc1-n1c(-c2cccnc2N)nc2ccc(-c3ccccc3)nc21` [Compound I-40, N-(5-(2-(2-aminopyridin-3-yl)-5-phenyl-3H-imidazo[4,5-b]pyridin-3-yl)-6-methylpyridin-2-yl)-3-(5-oxo-4,5-dihydro-1,2,4-thiadiazol-3-yl)benzamide] were less than 0.05 µM and less than 0.5 µM.
For the molecule `Nc1ncccc1-c1nc2ccc(-c3ccccc3)nc2n1-c1ccc(NC(=O)c2ccc(-c3nsc(=O)[nH]3)cc2F)nc1` [Compound I-41, N-(5-(2-(2-aminopyridin-3-yl)-5-phenyl-3H-imidazo[4,5-b]pyridin-3-yl)pyridin-2-yl)-2-fluoro-4-(5-oxo-4,5-dihydro-1,2,4-thiadiazol-3-yl)benzamide], the half-inhibitory concentration (IC50) at AKT1 E17K was 0.05 to 0.2 µM; at wildtype AKT1 it was less than 0.5 µM.
